US11718635B2, “Iron bis(imino) aryl catalysts and methods thereof” (ExxonMobil Chemical Patents Inc., priority 2019, dated 2023)

Test: Solubility tests in anhydrous hexane (stirred 30 minutes at room temperature, filtered, solvent removed)
Assay type: physicochemical
Description: (§1) This solution was stirred for 30 minutes at room temperature. The contents were then filtered through a buchner filter funnel with a frit having a 4-5.5 micron size. The solvent was then removed en vacuo.
as §1

calculated solubility (anhydrous hexane, stirred 30 minutes at room temperature, filtered through 4-5.5 micron frit)	solubility in hydrophobic (nonpolar) solvents compared to the Comparative Catalyst	Compound
0.0 g/g hexane		CC(=Nc1c(C)cc(C)cc1Cl)c1cccc(C(C)=Nc2c(C)cc(C)cc2Cl)n1.[Cl][Fe][Cl] [2,6-bis-[1-(2-chloro-4,6-dimethylphenylimino)ethyl]pyridine iron dichloride]
	significantly improved solubility	(E)-N-(2-chloro-4,6-dimethylphenyl)-1-(6-((E)-1-(mesitylimino)ethyl)pyridin-2-yl)ethan-1-imine iron-silylneopentyl [Catalyst 1]
